Assay results published in patent US20120053235A1, “Dihydromyricetin as an IKK-beta inhibitor used for treatment of arthritis, cancer and autoimmune conditions, and other diseases or disorders” (HONG KONG BAPTIST UNIVERSITY, priority 2010, published 2012).

What was measured:
Format in all cases: cell-based
[1] = system: NF-κB nuclear translocation in human T lymphocytes; assay: NF-κB nuclear translocation (p65 Western blot of nuclear proteins); conditions: pretreated 1 hour, 20 ng/ml PMA plus 1 μM ionomycin 120 minutes; FIG. 6A
Experimental: Human T lymphocytes (6×10^6/well) were pretreated with DMY for 1 hour, and subsequently stimulated with 20 ng/ml PMA plus 1 μM ionomycin for 120 minutes. The cells were then harvested and washed with PBS twice. The nuclear proteins of cells were prepared by using NucBuster™ Reagents (Novagen, USA). The washed cells were re-suspended using 60 μl NucBuster™ Reagent for […] of packed cells and processed twice by vortexing for 15 seconds, and followed by incubation on ice for 5 minutes and second vortexing for 15 seconds, and finally centrifuged at 16000 g for 5 minutes. The supernatants containing cytoplasmic protein were harvested, and then the cell pellets were re-suspended in 45 μl of NucBuster Extraction Reagent 2. The same vortexing, icing, and repeated vortexing procedures were repeated once to prepare the nuclear proteins of the cells.
Protein concentrations were determined by using Bio-Rad Protein assay. Equal amounts of nuclear proteins or whole-cell lysates were analyzed by 10% SDS-PAGE. After electrophoresis, the proteins were electro-transferred to the nitrocellulose membranes. After proteins were transferred, the membranes were blocked by 5% dried milk for 60 minutes and then washed three times for 5 min in each washing interval with Tris Buffered Saline with Tween 20 (TBS-T). […]

[2] = system: c-Fos nuclear translocation in human T lymphocytes; assay: c-Fos nuclear translocation assay (Western blot); conditions: pretreated 1 hour, PMA plus ionomycin 120 minutes
Experimental: (§1) For c-Jun and c-Fos nuclear translocation assays, the human T lymphocytes (6×10^6/well) were pretreated with DMY for 1 hour, and then stimulated with 20 ng/ml PMA plus […] ionomycin for 120 minutes. After the cells were harvested and washed with PBS twice, the nuclear proteins of cells were then prepared using NucBuster™ Reagents. Afterwards, the washed cells were re-suspended using 60 μl NucBuster™ Reagent 1 per 30 μl of packed cells and processed twice by vortexing for 15 seconds, and followed by the incubation on ice for 5 minutes and second vortexing for 15 seconds, and finally centrifuged at 16000 g for 5 minutes. The supernatants containing cytoplasmic proteins were discarded; the cell pellets were re-suspended in 45 μl of NucBuster Extraction Reagent 2. The same vortexing, icing, and repeated vortexing steps were repeated once to prepare the nuclear proteins of the cells.
(§2) Protein concentrations were determined by using Bio-Rad Protein assay. Equal amounts of nuclear proteins or whole-cell lysates were analyzed by 10% SDS-PAGE. After electrophoresis, the proteins were electro-transferred to the nitrocellulose membranes. […]

[3] = system: IL-2 production in human T-cell; assay: IL-2 ELISA of culture supernatants of stimulated T cells; parameters: dose or concentration left out as unconfirmed; conditions: DMY; P/I or anti-OKT-3/anti-CD28 for 48 hours; FIGS. 3A and 3B
Experimental: The cells (1×10^5/well) were incubated in the presence or absence of DMY for 2 hours at the indicated concentrations, and then the cells were stimulated with P/I or anti-OKT-3/anti-CD28 for 48 hours. The cell-free culture supernatants were collected, and then the concentration of IL-2 in the supernatants was determined by ELISA method.

[4] = system: c-Jun nuclear translocation in human T lymphocytes; assay: c-Jun nuclear translocation assay (Western blot); conditions: pretreated 1 hour, PMA plus ionomycin 120 minutes
Experimental: as §1, §2

[5] = system: NF-κB-Luciferase reporter in Jurkat T cells; assay: NF-κB reporter assay (luciferase); conditions: 20 ng/ml PMA plus 1 μM ionomycin, 6 hours; FIG. 6B
Experimental: The Jurkat T cells are transiently transfected with NF-κB-Luciferase reporter plasmid with lipofectamine LTX (Invitrogen). The transfected cells were treated with 20 ng/ml PMA plus 1 μM ionomycin in the presence or absence of biotin-DMY for 6 hours. The cells were then lysed in Passive Lysis Buffer (Promega) and the transcriptional activity was determined by measuring the activity of firefly luciferase in a microplate luminometer (Perkin Elmer) using Luciferase Reporter Assay (Promega).

[6] = system: c-Fos nuclear localization in HeLa cells; assay: Nuclear localization of c-Fos (immunofluorescence); conditions: DMY 2 hours then PMA plus ionomycin 2 hours, FIGS. 7 and 8
Experimental: HeLa cells (1×10^5) were seeded on the 6-well plates with cover slips and cultured overnight. The cells were treated with DMY for 2 hours at 37° C and then stimulated with or without 20 ng/ml PMA plus 1 μM ionomycin for another 2 hours. After stimulation, the cells were fixed with 4% paraformaldehyde for 15 minutes at room temperature and permeabilized by 0.1% Triton X-100 and then stained with phalloidin (Invitrogen) for 3 minutes. The cells were incubated with c-Fos antibody for 2 hour after being stained with phalloidin, and the cells were then incubated with FITC-linked secondary antibody for 1 hour after being washed with PBS for 3 times. The slides were dried in air and mounted onto the glass slides.

O=C1c2c(O)cc(O)cc2O[C@H](c2cc(O)c(O)c(O)c2)[C@H]1O [DMY, dihydromyricetin]
NF-κB nuclear translocation [1]: significantly suppressed | nuclear translocation of c-Fos [2]: suppress nuclear translocation | production of IL-2 [3]: suppress the production of IL-2 | nuclear translocation of c-Jun [4]: suppress nuclear translocation | NF-κB transcriptional activity [5]: significantly suppressed | c-Fos nuclear localization [6]: suppress c-Fos nuclear localization
